pKi: −log10 of the molar value.
Columns and labels:
Rat SERT = biological target: T1, Rat SERT (Rattus norvegicus, UniProt P31652); assay: Rat brain SERT binding ([3H]-Citalopram displacement, rat brain membranes); details: 0.6 nM [3H]-Citalopram, 60 min at 25° C.
T1 construct: A rat brain without cerebellum (Zivic Laboratories, Inc.—Pittsburgh, Pa.) was homogenized; tissue Zivic Laboratories, Inc; host or cells: rat brain without cerebellum
Procedure: A rat brain without cerebellum (Zivic Laboratories, Inc.—Pittsburgh, Pa.) was homogenized in a 52.6 mM Tris pH 8/126.4 mM NaCl/5.26 mM KCl mixture and centrifuged at 1,000 rpm for 5 min. The supernatant was removed and re-centrifuged at 15,000 rpm for 30 min. Pellets were re-homogenized in a 52.6 mM Tris pH8/126.4 mM NaCl/5.26 mM KCl mixture. Membranes were incubated with 0.6 nM [^3H]-Citalopram plus/minus test compounds for 60 min at 25° C. and harvested by rapid filtration over GF/C glass fiber filters (pretreated with 0.3% polyethylenimine) followed by four washes with ice-cold buffer. Nonspecific binding was defined in the presence of 100 μM fluoxetine.

human SERT = biological target: T2, human SERT (Homo sapiens, UniProt P31645); assay: Human SERT binding (3H-citalopram displacement, HEK293 membranes); details: 3H-citalopram 3.1 nM, rt for 1 h
T2 construct: expressed in transfected cells; host or cells: HEK293
T2 sequence (P31645 whole entry): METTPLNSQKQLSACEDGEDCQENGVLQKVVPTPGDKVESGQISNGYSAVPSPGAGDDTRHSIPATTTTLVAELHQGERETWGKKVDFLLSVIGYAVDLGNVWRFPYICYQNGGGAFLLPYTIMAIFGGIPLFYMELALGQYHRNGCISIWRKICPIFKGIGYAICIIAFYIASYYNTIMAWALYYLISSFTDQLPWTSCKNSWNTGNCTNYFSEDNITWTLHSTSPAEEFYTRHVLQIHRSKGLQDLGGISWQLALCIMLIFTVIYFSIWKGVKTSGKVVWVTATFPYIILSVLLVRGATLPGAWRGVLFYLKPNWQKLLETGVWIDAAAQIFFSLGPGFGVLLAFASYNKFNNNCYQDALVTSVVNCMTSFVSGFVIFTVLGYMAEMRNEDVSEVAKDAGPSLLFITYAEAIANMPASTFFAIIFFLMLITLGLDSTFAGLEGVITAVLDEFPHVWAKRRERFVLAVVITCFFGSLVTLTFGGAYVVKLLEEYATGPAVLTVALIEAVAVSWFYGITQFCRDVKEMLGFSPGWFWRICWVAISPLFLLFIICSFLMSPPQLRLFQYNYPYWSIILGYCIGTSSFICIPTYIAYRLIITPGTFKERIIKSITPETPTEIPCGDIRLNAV
Procedure: Homogenized HEK293 (Human Embryonic Kidney) membranes expressing the human SERT were incubated with ^3H-citalopram (SERT) at rt for 1 h in 50 mM Tris, 120 mM NaCl, 5 mM KCl (pH 7.4). Nonspecific binding was determined in the presence of 10 μM fluoxetine for the SERT. The membranes were washed and the radioactivity was counted as above. Calculations for Ki at the SERT were based on a Kd value for ^3H-citalopram and a ligand concentration of 3.1 nM.

human H3 receptor = biological target: T3, human H3 receptor (Homo sapiens, UniProt Q9Y5N1); assay: H3 receptor binding (N-[3H]-α-methylhistamine displacement, SK-N-MC cell membranes); details: 0.8 nM N-[3H]-α-methylhistamine, 60 min at 25° C.
T3 construct: expressed in transfected cells
T3 sequence (Q9Y5N1 whole entry): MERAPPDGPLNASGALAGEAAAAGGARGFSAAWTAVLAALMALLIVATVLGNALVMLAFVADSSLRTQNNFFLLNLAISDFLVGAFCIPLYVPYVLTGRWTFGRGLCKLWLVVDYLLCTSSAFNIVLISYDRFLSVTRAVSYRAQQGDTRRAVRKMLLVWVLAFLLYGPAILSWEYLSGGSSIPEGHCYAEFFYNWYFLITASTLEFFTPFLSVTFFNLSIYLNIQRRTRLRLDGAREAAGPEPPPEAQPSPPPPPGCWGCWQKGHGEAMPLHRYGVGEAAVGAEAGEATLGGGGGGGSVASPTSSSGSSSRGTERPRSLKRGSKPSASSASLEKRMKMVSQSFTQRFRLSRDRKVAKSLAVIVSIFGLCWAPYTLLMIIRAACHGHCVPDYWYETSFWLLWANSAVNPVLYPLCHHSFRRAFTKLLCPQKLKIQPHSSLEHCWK
Procedure: Binding of compounds to the cloned human H3 receptor, stably expressed in SK-N-MC cells, was performed (Lovenberg, T. W. et al. J. Pharmacol. Exp. Ther. 2000, 293, 771-778). Briefly, cell pellets from SK-N-MC cells expressing the human H3 receptor were homogenized in 50 mM Tris-HCl/5 mM EDTA and re-centrifuged at 30,000 g for 30 min. Pellets were re-homogenized in 50 mM Tris/5 mM EDTA (pH 7.4). Membranes were incubated with 0.8 nM N—[^3H]-α-methylhistamine plus/minus test compounds for 60 min at 25° C. and harvested by rapid filtration over GF/C glass fiber filters (pretreated with 0.3% polyethylenimine) followed by four washes with ice-cold buffer. Nonspecific binding was defined in the presence of 10 μM histamine.

T1 sequence (P31652 whole entry): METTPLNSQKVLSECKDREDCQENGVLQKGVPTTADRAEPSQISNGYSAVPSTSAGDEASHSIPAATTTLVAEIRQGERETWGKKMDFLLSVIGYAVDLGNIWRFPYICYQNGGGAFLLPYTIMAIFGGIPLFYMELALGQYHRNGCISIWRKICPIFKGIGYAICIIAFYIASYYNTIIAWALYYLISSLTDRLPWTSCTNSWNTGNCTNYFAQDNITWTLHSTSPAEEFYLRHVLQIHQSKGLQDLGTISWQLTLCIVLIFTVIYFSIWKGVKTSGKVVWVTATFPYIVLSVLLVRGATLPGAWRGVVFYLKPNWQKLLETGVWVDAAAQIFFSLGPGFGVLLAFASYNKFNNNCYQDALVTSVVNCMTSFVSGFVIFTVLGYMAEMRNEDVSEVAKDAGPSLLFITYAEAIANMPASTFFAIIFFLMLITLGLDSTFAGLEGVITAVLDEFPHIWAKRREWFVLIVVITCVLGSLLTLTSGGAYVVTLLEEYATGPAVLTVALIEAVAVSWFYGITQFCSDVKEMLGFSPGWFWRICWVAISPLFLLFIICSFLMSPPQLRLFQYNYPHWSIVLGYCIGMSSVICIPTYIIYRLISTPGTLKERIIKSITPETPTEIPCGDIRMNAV

Structure (SMILES)	pKi (Rat SERT)	pKi (human SERT)	pKi (human H3 receptor)
CN(C)CCC(Oc1ccc(Cl)c(Cl)c1)c1ccc(OCCCN2CCCCC2)cc1 (single isomer, unassigned; (+)) [Example 75, (+)-{3-(3,4-Dichloro-phenoxy)-3-[4-(3-piperidin-1-yl-propoxy)phenyl]-propyl}-dimethyl-amine]	8.01	–	–
CN(C)CCC(Oc1ccc(Cl)c(Cl)c1)c1ccc(OCCCN2CCCCC2)cc1 (single isomer, unassigned; (-)) [Example 74, (−){3-(3,4-Dichloro-phenoxy)-3-[4-(3-piperidin-1-yl-propoxy)phenyl]-propyl}-dimethyl-amine]	7.96	–	–
CN(C)CCC(Oc1ccccc1)c1cccc(OCCCN2CCCCC2)c1 (centres unmarked) [Example 3, Dimethyl-[3-phenoxy-3-[3-(3-piperidin-1-yl-propoxy)-phenyl]-propyl]-amine]	7.80	6.70	8.52
CSc1ccc(OC(CCN(C)C)c2ccc(OCCCN3CCCCC3)cc2)cc1 (centres unmarked) [Example 4, Dimethyl-{3-(4-methylsulfanyl-phenoxy)-3-[4-(3-piperidin-1-yl-propoxy)-phenyl]-propyl}-amine]	8.89	8.00	9.05
CN(C)CCC(Oc1ccc(C#N)cc1)c1ccc(OCCCN2CCCCC2)cc1 (centres unmarked) [Example 5, 4-{3-Dimethylamino-1-[4-(3-piperidin-1-yl-propoxy)-phenyl]-propoxy}-benzonitrile]	8.10	6.80	9.70
Cc1ccc(OC(CCN(C)C)c2ccc(OCCCN3CCCCC3)cc2)cc1 (centres unmarked) [Example 6, Dimethyl-{3-[4-(3-piperidin-1-yl-propoxy)-phenyl]-3-p-tolyloxy-propyl}-amine]	8.82	7.80	9.22
COc1ccc(OC(CCN(C)C)c2ccc(OCCCN3CCCCC3)cc2)cc1 (centres unmarked) [Example 7, {3-(4-Methoxy-phenoxy)-3-[4-(3-piperidin-1-yl-propoxy)-phenyl]-propyl}-dimethyl-amine]	8.70	7.22	9.05
CN(C)CCC(Oc1ccc(Cl)cc1)c1ccc(OCCCN2CCCCC2)cc1 (centres unmarked) [Example 8, {3-(4-Chloro-phenoxy)-3-[4-(3-piperidin-1-yl-propoxy)-phenyl]-propyl}-dimethyl-amine]	8.70	7.80	8.77
CN(C)CCC(Oc1ccc(Cl)c(Cl)c1)c1ccc(OCCCN2CCCCC2)cc1 (centres unmarked) [Example 9, {3-(3,4-Dichloro-phenoxy)-3-[4-(3-piperidin-1-yl-propoxy)-phenyl]-propyl}-dimethyl-amine]	8.22	–	–
CN(C)CCC(Oc1ccc(F)cc1)c1ccc(OCCCN2CCCCC2)cc1 (centres unmarked) [Example 10, {3-(4-Fluoro-phenoxy)-3-[4-(3-piperidin-1-yl-propoxy)-phenyl]-propyl}-dimethyl-amine]	8.89	7.34	9.00
CN(C)CCC(Oc1cccc(Cl)c1)c1ccc(OCCCN2CCCCC2)cc1 (centres unmarked) [Example 14, {3-(3-Chloro-phenoxy)-3-[4-(3-piperidin-1-yl-propoxy)-phenyl]-propyl}-dimethyl-amine]	–	8.15	8.77
CN(C)CCC(Oc1ccc(Cl)cc1)c1ccc(C#CCCN2CCCCC2)cc1 (centres unmarked) [Example 25, {3-(4-Chloro-phenoxy)-3-[4-(4-piperidin-1-yl-but-1-ynyl)-phenyl]-propyl}-dimethyl-amine]	7.41	–	7.68
COc1ccc(OC(CCN(C)C)c2ccc(C#CCCN3CCSCC3)cc2)cc1 (centres unmarked) [Example 26, {3-(4-Methoxy-phenoxy)-3-[4-(4-thiomorpholin-4-yl-but-1-ynyl)phenyl]-propyl}-dimethyl-amine]	7.37	–	7.96
CN(C)CCC(Oc1ccc(C(F)(F)F)cc1)c1ccc(C#CCCN2CCOCC2)cc1 (centres unmarked) [Example 27, Dimethyl-[3-[4-(4-morpholin-4-yl-but-1-ynyl)-phenyl]-3-(4-trifluoromethyl-phenoxy)-propyl]-amine]	7.10	–	7.22
CN(C)CCC(Oc1ccc(C(F)(F)F)cc1)c1ccc(C#CCCN2CCSCC2)cc1 (centres unmarked) [Example 28, Dimethyl-[3-[4-(4-thiomorpholin-4-yl-but-1-ynyl)-phenyl]-3-(4-trifluoromethyl-phenoxy)-propyl]-amine]	6.77	–	6.91
CC(C)N1CCN(CCC#Cc2ccc(C(CCN(C)C)Oc3ccc(C(F)(F)F)cc3)cc2)CC1 (centres unmarked) [Example 29, [3-{4-[4-(4-Isopropyl-piperazin-1-yl)-but-1-ynyl]-phenyl}-3-(4-trifluoromethyl-phenoxy)-propyl]-dimethyl-amine]	7.41	–	6.59
CN(C)CCC(Oc1ccc(Cl)c(Cl)c1)c1ccc(C#CCCN2CCCCC2)cc1 (centres unmarked) [Example 30, {3-(3,4-Dichloro-phenoxy)-3-[4-(4-piperidin-1-yl-but-1-ynyl)phenyl]-propyl}-dimethyl-amine]	7.68	–	7.62
CC(C)N1CCN(C(=O)c2ccc(OC(CCN(C)C)c3ccc(C(F)(F)F)cc3)cc2)CC1 (centres unmarked) [Example 46, {4-[3-Dimethylamino-1-(4-trifluoromethyl-phenyl)-propoxy]-phenyl}-(4-isopropyl-piperazin-1-yl)-methanone]	7.24	–	9.00
CCCCN1CCN(C(=O)c2ccc(C(CCN(C)C)Oc3ccc(C(F)(F)F)cc3)cc2)CC1 (centres unmarked) [Example 48, (4-Butyl-piperazin-1-yl)-{4-[3-dimethylamino-1-(4-trifluoromethylphenoxy)-propyl]-phenyl}-methanone]	7.07	–	7.77
CCCCN1CCN(Cc2ccc(C(CCN(C)C)Oc3ccc(C(F)(F)F)cc3)cc2)CC1 (centres unmarked) [Example 49, [3-[4-(4-Butyl-piperazin-1-ylmethyl)-phenyl]-3-(4-trifluoromethylphenoxy)-propyl]-dimethyl-amine]	7.32	–	7.14
CN(C)CCC(Oc1ccc(C#CCCN2CCSCC2)cc1)c1ccc(Cl)cc1 (centres unmarked) [Example 58, {3-(4-Chloro-phenyl)-3-[4-(4-thiomorpholin-4-yl-but-1-ynyl)phenoxy]-propyl}-dimethyl-amine]	6.82	–	7.54
CN(C)CCC(Oc1ccc(C#CCCN2CCOCC2)cc1)c1ccc(Cl)cc1 (centres unmarked) [Example 59, {3-(4-Chloro-phenyl)-3-[4-(4-morpholin-4-yl-but-1-ynyl)-phenoxy]-propyl}-dimethyl-amine]	6.74	–	7.25
CN(C)CCC(Oc1ccc(C#CCCN2CCOCC2)cc1)c1ccccc1 (centres unmarked) [Example 61, Dimethyl-{3-[4-(4-morpholin-4-yl-but-1-ynyl)-phenoxy]-3-phenyl-propyl}-amine]	6.97	–	6.99
CC(C)N1CCN(CCC#Cc2ccc(OC(CCN(C)C)c3ccc(C(F)(F)F)cc3)cc2)CC1 (centres unmarked) [Example 62, [3-{4-[4-(4-Isopropyl-piperazin-1-yl)-but-1-ynyl]-phenoxy}-3-(4-trifluoromethyl-phenyl)-propyl]-dimethyl-amine]	6.78	–	6.84
CN(C)CCC(Oc1ccc(C#CCCN2CCSCC2)cc1)c1ccccc1 (centres unmarked) [Example 63, Dimethyl-{3-phenyl-3-[4-(4-thiomorpholin-4-yl-but-1-ynyl)phenoxy]-propyl}-amine]	7.28	–	7.74
CN(C)CCC(Oc1ccc(C#CCCN2CCOCC2)cc1)c1ccc(C(F)(F)F)cc1 (centres unmarked) [Example 64, Dimethyl-[3-[4-(4-morpholin-4-yl-but-1-ynyl)-phenoxy]-3-(4-trifluoromethyl-phenyl)-propyl]-amine]	6.47	–	5.40
CN(C)CCC(Oc1ccc(C#CCCN2CCSCC2)cc1)c1ccc(C(F)(F)F)cc1 (centres unmarked) [Example 76, Dimethyl-[3-[4-(4-thiomorpholin-4-yl-but-1-ynyl)-phenoxy]-3-(4-trifluoromethyl-phenyl)-propyl]-amine]	6.27	–	7.12
CN(C)CCC(Oc1ccc(C#CCCN2CCCCC2)cc1)c1ccc(F)cc1 (centres unmarked) [Example 77, {3-(4-Fluoro-phenyl)-3-[4-(4-piperidin-1-yl-but-1-ynyl)-phenoxy]-propyl}-dimethyl-amine]	6.78	–	6.44
CN(C)CCC(Oc1ccc(C(F)(F)F)cc1)c1ccc(C(=O)N2CCN(C3CCCCC3)CC2)cc1 (centres unmarked) [Example 78, (4-Cyclohexyl-piperazin-1-yl)-{4-[3-dimethylamino-1-(4-trifluoromethyl-phenoxy)-propyl]-phenyl}-methanone]	6.65	–	7.66
